Data taken from ChEMBL document CHEMBL4602687, “Dual Binding to Orthosteric and Allosteric Sites Enhances the Anticancer Activity of a TRAP1-Targeting Drug” (J Med Chem, 2020).
Residue numbers refer to the chain shown, from its start. Activity calls are given as the source filed them. The calls are words filed in the database; no cut-off is given here.

Columns and labels:
[1] = target: T1, Heat shock protein 75 kDa, mitochondrial (Homo sapiens) (UniProt Q12931); experiment: Stimulation of recombinant wild-type human TRAP1 ATPase activity expressed in Escherichia coli BL21 (DE3) at 2 to 5 uM preincubated for 0.5 hrs followed by 2 mM ATP addition and measured after 3 hrs by PiColorLock Gold reagent based colorimetric assay relative to control
T1 sequence (whole entry): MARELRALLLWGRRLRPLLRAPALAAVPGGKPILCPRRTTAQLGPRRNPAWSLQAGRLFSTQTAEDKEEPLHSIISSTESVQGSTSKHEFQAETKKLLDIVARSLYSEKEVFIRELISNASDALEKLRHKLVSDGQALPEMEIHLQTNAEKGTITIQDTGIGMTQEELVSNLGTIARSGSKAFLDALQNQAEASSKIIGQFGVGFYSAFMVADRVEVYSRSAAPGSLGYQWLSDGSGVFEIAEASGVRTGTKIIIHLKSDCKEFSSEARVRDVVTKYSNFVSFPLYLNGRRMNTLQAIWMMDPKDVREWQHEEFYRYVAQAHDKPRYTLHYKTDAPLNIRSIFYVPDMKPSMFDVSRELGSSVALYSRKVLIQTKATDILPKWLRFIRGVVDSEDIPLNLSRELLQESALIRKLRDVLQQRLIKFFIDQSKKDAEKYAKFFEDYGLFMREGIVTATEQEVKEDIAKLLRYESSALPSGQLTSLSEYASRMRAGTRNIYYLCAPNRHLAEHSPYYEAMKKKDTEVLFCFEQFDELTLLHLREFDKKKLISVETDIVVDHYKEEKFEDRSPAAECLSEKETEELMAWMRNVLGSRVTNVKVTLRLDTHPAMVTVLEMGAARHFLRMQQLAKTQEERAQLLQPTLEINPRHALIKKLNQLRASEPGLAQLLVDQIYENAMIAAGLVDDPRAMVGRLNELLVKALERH

[2] = target: T1, Heat shock protein 75 kDa, mitochondrial (Homo sapiens); experiment: Inhibition of recombinant wild-type human TRAP1 chaperone activity expressed in Escherichia coli BL21 (DE3) at 5 uM preincubated for 30 mins followed by denatured luciferase and ATP addition by luciferase refolding assay
[3] = target: T1, Heat shock protein 75 kDa, mitochondrial (Homo sapiens); experiment: Inhibition of recombinant wild-type human TRAP1 expressed in Escherichia coli BL21 (DE3) assessed as intrinsic fluorescence quenching of tryptophan residues at 10 uM measured after 1 hr by fluorescence spectrophotometric method
Homo sapiens = species: Homo sapiens; experiment: Inhibition of recombinant full-length human TRAP1 W585/W4F mutant expressed in Escherichia coli BL21 (DE3) assessed as intrinsic fluorescence quenching of tryptophan residues at 10 uM measured after 1 hr by fluorescence spectrophotometric method
[4] = target: T1, Heat shock protein 75 kDa, mitochondrial (Homo sapiens); experiment: Binding affinity to recombinant wild-type human TRAP1 ATP site expressed in Escherichia coli BL21 (DE3) assessed as induction of conformational change by measuring closed state population of TRAP1 at 10 uM preincubated for 30 mins followed by ATP addition and measured after 30 mins by TEM analysis (reference value: 52.1 +/- 0.6 %)
[5] = target: T1, Heat shock protein 75 kDa, mitochondrial (Homo sapiens); experiment: Binding affinity to recombinant wild-type human TRAP1 ATP site expressed in Escherichia coli BL21 (DE3) assessed as induction of conformational change by measuring closed state population of TRAP1 at 10 uM measured after 30 mins in absence of ATP by TEM analysis (reference value: 52.1 +/- 0.6 %)
[6] = system: T2, Heat shock protein 75 kDa, mitochondrial (Homo sapiens), Q12931 [E115Q]; experiment: Inhibition of recombinant […] human TRAP1 E115Q mutant ATPase activity expressed in Escherichia coli BL21 (DE3) up to 20 uM preincubated for 0.5 hrs followed by ATP addition and measured after 3 hrs by PiColorLock Gold reagent based colorimetric assay
T2 sequence (whole entry): T1 sequence (whole entry) with E115Q

[7] = target: T1, Heat shock protein 75 kDa, mitochondrial (Homo sapiens); experiment: Inhibition of TRAP1 in human PC3 cells assessed as increase in reactive oxygen species generation at 10 uM measured after 2 hrs by Mito-SOX probe based flow cytometry; format: cell-based; settings: PC-3
[8] = target: T1, Heat shock protein 75 kDa, mitochondrial (Homo sapiens); experiment: Inhibition of TRAP1 in human PC3 cells assessed as reduction in ATP concentration at 10 uM measured after 2 hrs; format: cell-based; settings: PC-3
[9] = target: T1, Heat shock protein 75 kDa, mitochondrial (Homo sapiens); experiment: Inhibition of TRAP1 in human PC3 cells assessed as increase in AMPK phosphorylation at 5 uM measured after 2 to 12 hrs by Western blot analysis; format: cell-based; settings: PC-3
[10] = target: T1, Heat shock protein 75 kDa, mitochondrial (Homo sapiens); experiment: Inhibition of TRAP1 in human PC3 cells assessed as reduction in SDHB expression at 5 uM measured after 2 to 12 hrs by Western blot analysis; format: cell-based; settings: PC-3
[11] = target: T1, Heat shock protein 75 kDa, mitochondrial (Homo sapiens); experiment: Inhibition of TRAP1 in human PC3 cells assessed as increase in CHOP expression at 5 uM measured after 2 to 12 hrs by Western blot analysis; format: cell-based; settings: PC-3
HeLa = experiment: Cytotoxicity against human HeLa cells assessed as reduction in cell viability up to 3 uM measured after 24 hrs by MTT assay; format: functional, cell-based
Mus musculus [12] = experiment: In vivo inhibition of TRAP1 in nude mouse xenografted with human NCI-H460 cells assessed as increase in CHOP expression at 5 mg/kg, ip administered daily by Western blot analysis; format: functional, organism-based
Mus musculus [13] = experiment: In vivo inhibition of TRAP1 in nude mouse xenografted with human NCI-H460 cells assessed as increase in SDHB degradation at 5 mg/kg, ip administered daily by Western blot analysis; format: functional, organism-based
NCI-H460 [14] = experiment: Antitumor activity against human NCI-H460 cells xenografted in nude mouse assessed as induction of tumor cell death by measuring increase in cleaved caspase-3 expression at 5 mg/kg, ip administered daily by Western blot analysis; format: functional, organism-based
NCI-H460 [15] = experiment: Antitumor activity against human NCI-H460 cells xenografted in nude mouse assessed as induction of tumor cell death by measuring increase in cleaved caspase-9 expression at 5 mg/kg, ip administered daily by Western blot analysis; format: functional, organism-based

fold change (FC) [1]: 2 | inhibition [2]: Active | inhibition [3]: Active | inhibition (Homo sapiens): Active | Activity [4]: 94.2% | Activity [5]: 72.5% | inhibition [6]: Active | inhibition [7]: Active | inhibition [8]: Active | inhibition [9]: Active | inhibition [10]: Active | inhibition [11]: Active
SMILES: Nc1ncnc2c1nc(Sc1cc3c(cc1I)OCO3)n2CCCCCCCCCC[P+](c1ccccc1)(c1ccccc1)c1ccccc1
Activity (HeLa): Active | inhibition (Mus musculus [12]): Active | inhibition (Mus musculus [13]): Active | Activity (NCI-H460 [14]): Active | Activity (NCI-H460 [15]): Active
